Data published in patent US20230010110A1, “HISTATIN-1 FORMULATION FOR THE TREATMENT, REPAIR OR REGENERATION OF BONE TISSUE IN A SUBJECT” (UNIVERSIDAD DE CHILE, priority 2019, published 2023).
Entries after “also recorded” stand apart in the source; their conditions may differ.

Assays:
[1] = system: β-catenin in SAOS-2 cells; assay: immunofluorescence of total and non-phosphorylated β-catenin nuclear localization; assay type: cell-based; conditions: SAOS-2, 10 μM, 24 h
Description: (§1) In (A) SAOS-2 cells were incubated in the absence or presence of 10 μM Histatin-1 for 24 h, and whole cell lysates were prepared for Western blot analysis of β-catenin. […] In (B) SAOS-2 cells were incubated with Histatin-1 for 24 hours. Cells were then fixed, permeabilized and incubated with primary and secondary antibodies for subsequent immunofluorescence analysis of total and non-phosphorylated (transcriptionally active) β-catenin.
Representative Western blot images are shown, and relative levels of β catenin were quantified by scanning densitometry and normalized to actin. Graphs represent the average from 3 independent experiments (mean±s.e.m.; *p<0.05). (B) SAOS 2 cells were treated or not with 10 μM Histatin 1 for 24 h, then fixed, permeabilized and analyzed incubated with primary and secondary antibodies for subsequent immunofluorescence analysis of total and non-phosphorylated (transcriptionally active) β-catenin. Left panels show representative confocal microscopy images of total and active β-catenin, whereas nuclei staining with DAPI was used as reference. […]
Alternatively, SAOS-2 cells grown on coverslips were fixed, permeabilized and analyzed for total and active β-catenin nuclear localization.

[2] = system: SAOS-2 cells; assay: in vitro mineralization test (alizarin red); assay type: cell-based; conditions: SAOS-2, 10 μM, 7 days
Description: (§2) The ability of Histatin-1 to stimulate the formation of calcium deposits was determined by the alizarin red staining test. For this, SAOS-2 cells, MC3T3-E1 preosteoblasts, stem cells from the apical papilla or dental pulp stem cells were grown in complete medium supplemented with bovine serum, in the absence or presence 10 μM Histatin-1 for 7 days. […] Cells were washed with PBS, fixed with 4% paraformaldehyde, and stained with Alizarin Red aqueous solution for 1 h. Finally, samples were washed with distilled water and subsequently with PBS. Calcium deposits were visualized in an optic microscope. Representative images are shown, and graphs represent the quantification of the amount of calcium deposits. Values are shown as the mean±s.e.m (*p<0.01; ***p<0.001).

[3] = system: MC3T3-E1 preosteoblasts; assay: in vitro mineralization test (alizarin red); assay type: cell-based; conditions: MC3T3-E1, 10 μM, 7 days
Description: as §2

[4] = system: osteoblastic cells; conditions: zoledronic acid challenge; cited from earlier work
[5] = system: Alkaline Phosphatase (ALP) in SAOS-2 cells; assay: alkaline phosphatase activity, p-nitrophenyl phosphate, absorbance at 405 nm; assay type: cell-based; conditions: SAOS-2, 10 μM, 24 and 48 h
Description: (§3) In (A) SAOS-2 and (B) MC3T3-E1 cells were incubated in the absence or presence of 10 μM Histatin-1 for 24 h, and whole cell lysates were analyzed by Western blotting of ALP. […] In (C) SAOS-2 cells were treated or not with 10 μM Histatin-1 for 24 and 48 h, and the activity of alkaline phosphatase (ALP) was measured by metabolization of the substrate p-nitrophenyl phosphate, following absorbance at 405 nm.
Representative Western blot images are shown, and relative levels of ALP were quantified by scanning densitometry and normalized to actin. Graphs represent the average from 3 independent experiments (mean±s.e.m.; *p<0.05). (C) SAOS 2 cells were treated or not with 10 μM Histatin 1 for 24 and 48 h, and the activity of alkaline phosphatase (ALP) was measured by metabolization of the substrate p-nitrophenyl phosphate, following absorbance at 405 nm. Data were averaged from 3 independent experiments and shown as residual activity (% increase with respect to the control condition; mean±s.e.m; *p<0.05).

[6] = system: SAOS-2 osteosarcoma cells; assay: in vitro cell adhesion to fibronectin coated plates, crystal violet staining; assay type: cell-based; conditions: SAOS-2, 10 μM Histatin-1, fibronectin 2 μg/ml, 5-60 min, serum-free medium
Description: (§4) For this, (A) SAOS 2 cells were collected, resuspended in serum-free medium either containing or not 10 μM Histatin-1, and incubated for 30 min. Cells were then allowed to attach to fibronectin coated plates (2 μg/ml) for 5, 10, 15, 30, 45 and 60 min in serum-free medium, containing or not 10 μM Histatin-1. Cell adhesion was detected by crystal violet staining and counting under an optic microscope. Representative images are shown for each time point, in the absence or presence of Histatin 1. […] (B, C and D) Cell migration was measured in Transwell chambers coated with 2 μg/ml fibronectin. Briefly, SAOS 2 (B), MC3T3 E1 cells (C) and APMCs (apical papilla mesenchymal cells, D) were allowed to migrate for 60 min in Transwell chambers, in the presence of 10 μM Histatin 1 or 10 μM of non-phosphorylated Histatin 1 (no P), 10 μM of a scramble sequence or vehicle control (H2O). Cells that migrated were visualized by crystal violet staining. Representative images are shown, and graphs represent the averages of 3 independent experiments (mean±s.e.m; *p<0.05; **p<0.01).

[7] = system: β-catenin in SAOS-2 cells; assay: Western blot of β-catenin in whole cell lysates; assay type: cell-based; conditions: SAOS-2, 10 μM, 24 h
Description: as §1
(§5) By Western blot assay, the effect of Histatin-1 on the expression of two proteins involved in the osteogenesis process (alkaline phosphatase, β-catenin) was evaluated. For this, SAOS-2 or MC3T3-E1 cells were seeded on 60 mm plates, grown in complete medium supplemented with bovine serum for 24 h, washed with PBS and then incubated for 24 h with either serum-free medium or serum-free medium containing 10 μM Histatin-1. […] Bound first antibodies were detected with HRP-conjugated second antibodies and detected with the EZ-ECL system.
Representative Western blot images are shown, and relative levels of β catenin were quantified by scanning densitometry and normalized to actin. […] (B) SAOS 2 cells were treated or not with 10 μM Histatin 1 for 24 h, then fixed, permeabilized and analyzed incubated with primary and secondary antibodies for subsequent immunofluorescence analysis of total and non-phosphorylated (transcriptionally active) β-catenin. […]

[8] = system: Alkaline Phosphatase (ALP) in MC3T3-E1 cells; assay: Western blot of alkaline phosphatase in whole cell lysates; assay type: cell-based; conditions: MC3T3-E1, 10 μM, 24 h
Description: as §3, §5
(§6) Representative Western blot images are shown, and relative levels of ALP were quantified by scanning densitometry and normalized to actin. […] (C) SAOS 2 cells were treated or not with 10 μM Histatin 1 for 24 and 48 h, and the activity of alkaline phosphatase (ALP) was measured by metabolization of the substrate p-nitrophenyl phosphate, following absorbance at 405 nm. […]

[9] = system: Alkaline Phosphatase (ALP) in SAOS-2 cells; assay: as above; assay type: cell-based; conditions: SAOS-2, 10 μM, 24 h
Description: as §3, §5, §6

[10] = system: angiogenesis; conditions: in vivo; cited from earlier work
[11] = system: Runx2, osteocalcin, osteopontin and ALP mRNA in APMCs; assay: RT qPCR of osteoblastic differentiation markers; assay type: cell-based; conditions: 10 μM, 7 days
Description: (§7) (A) MC3T3-E1 and (B) AMPCs cells were treated or not with 10 μM Histatin-1 for 7 days. Total RNA was extracted, for subsequent RT qPCR analysis of Runx2, osteocalcin, osteopontin and ALP.
(§8) To evaluate the differentiation towards bone lineage in the presence of Histatin-1, the expression of the osteocalcin, osteopontin, Runx2 and ALP gene were determined, as markers of differentiation, by means of a qPCR assay for mRNA content analysis. For this, osteoblasts-like cells and stem cells from the apical papilla were grown in complete medium supplemented with bovine serum, in the absence or presence of 10 μM Histatin-1 for 24 h. Total RNA was extracted with TRIZOL (Invitrogen, Life Technologies), following the manufacturer's instructions. For cDNA synthesis, samples were treated with RNase-Free DNase kit (#M6101 Promega), quantified and purity was verified for subsequent reverse transcription, using the cDNA Reverse Transcription Kit (Applied Biosystems). Alkaline phosphatase, osteocalcin, osteopontin, Runx2 and GAPDH were quantified by qRT-PCR (Applied Biosystems, ΔΔCt method).
(§9) Total RNA was extracted, for subsequent RT qPCR analysis of Runx2, osteocalcin, osteopontin and ALP. Relative abundance of all screened mRNAs was normalized to GAPDH, by using the ΔΔCT method. Graphs show data obtained by averaging 3 independent experiments (mean±s.e.m.; *p<0.05; **p<0.01).

[12] = system: Runx2, osteocalcin, osteopontin and ALP mRNA in MC3T3-E1 cells; assay: RT qPCR of osteoblastic differentiation markers; assay type: cell-based; conditions: MC3T3-E1, 10 μM, 7 days
Description: as §7, §8, §9

[13] = system: MC3T3-E1 pre-osteoblasts; assay: Transwell cell migration assay; assay type: cell-based; conditions: MC3T3-E1, 10 μM, 60 min, Transwell coated with 2 μg/ml fibronectin
Description: as §4

[14] = system: apical papilla mesenchymal cells, APMCs; assay: Transwell cell migration assay; assay type: cell-based; conditions: 10 μM, 60 min, Transwell coated with 2 μg/ml fibronectin
Description: as §4

[15] = system: SAOS-2 osteosarcoma cells; assay: Transwell cell migration assay; assay type: cell-based; conditions: SAOS-2, 10 μM, 60 min, Transwell coated with 2 μg/ml fibronectin
Description: as §4

[16] = system: stem cells from the apical papilla (APMCs); assay: in vitro mineralization test (alizarin red); assay type: cell-based; conditions: 10 μM, 7 days
Description: as §2
(§10) The same procedure was performed on stem cells of the apical papilla and dental pulp.

[17] = system: dental pulp mesenchymal cells; assay: in vitro mineralization test (alizarin red); assay type: cell-based; conditions: dental pulp mesenchymal (stem) cells, 10 μM, 7 days
Description: as §2, §10

[18] = system: endothelial cells; conditions: in vitro; cited from earlier work

With “Histatin-1: human salivary peptide of 38 amino acids, obtained by chemical synthesis, with the sequence SEQ ID NO. 1 (DSHEKRHHGYRRKFHEKHHSHREFPFYGDYGSNYLYDN; listed as Homo sapiens)” the “nuclear localization of active (non-phosphorylated) β-catenin” value [1] was “increases the nuclear localization of total and active β-catenin”, the “nuclear localization of total β-catenin” value [1] was “increases the nuclear localization of total and active β-catenin” and the “calcium deposits / crystal nucleation sites (alizarin red)” value [2] was “increases the number of crystal nucleation sites; also recorded: increased staining of the culture with Alizarin Red”. The “calcium deposits / crystal nucleation sites (alizarin red)” value [3] was “increases the number of crystal nucleation sites; also recorded: increased staining of the culture with Alizarin Red”, the “cell migration in cells challenged with zoledronic acid” value [4] was “restored both cell migration and viability” and the “cell viability in cells challenged with zoledronic acid” value [4] was “restored both cell migration and viability”. For the same substance, the “activity of alkaline phosphatase (ALP)” value [5] was “increases the activity of ALP”, the cell adhesion [6] was “favors both cell adhesion and migration” and the “protein levels of β-catenin (Western blot, normalized to actin)” value [7] was “increases the protein levels of β-catenin; also recorded: increases the expression of the protein”. For the same substance, the “protein levels of ALP (Western blot, normalized to actin)” value [8] was “increases the protein levels of ALP”, the “protein levels of ALP (Western blot, normalized to actin)” value [9] was “increases the protein levels of ALP; also recorded: increased the production of this enzyme” and the angiogenesis [10] was “angiogenesis in vivo”. The “mRNA of osteoblastic differentiation markers (Runx2, osteocalcin, osteopontin, ALP), normalized to GAPDH” value [11] was “increases the mRNA of different osteoblastic differentiation markers; also recorded: induces an increase in the relative abundance of mRNA”, the “mRNA of osteoblastic differentiation markers (Runx2, osteocalcin, osteopontin, ALP), normalized to GAPDH” value [12] was “increases the mRNA of different osteoblastic differentiation markers; also recorded: induces an increase in the relative abundance of mRNA” and the cell migration [13] was “favors both cell adhesion and migration”. The cell migration [14] was “favors both cell adhesion and migration”, the cell migration [15] was “favors both cell adhesion and migration” and the “calcium deposits / crystal nucleation sites (alizarin red)” value [16] was “increases the number of crystal nucleation sites; also recorded: stimulated the formation of calcium deposits”. For the same substance, the “calcium deposits / crystal nucleation sites (alizarin red)” value [17] was “increases the number of crystal nucleation sites; also recorded: stimulated the formation of calcium deposits”, the endothelial cell migration [18] was “stimulating endothelial cell migration” and the “formation of endothelial structures” value [18] was “formation of endothelial structures in vitro”.
